Reference: patent publication US11465983B2, “USP7 inhibitors for treating multiple myeloma” (Dana-Farber Cancer Institute, Inc., priority 2017, dated 2022)

What was measured:
[1] = tested on: HDM2, p53 and p21 protein levels in MCF7 cells; assay: Immunoblot of HDM2, p53 and p21 protein levels in treated cells; type: cell-based; conditions: 16 hours, FIG. 6A
Description: MCF7 and MM.1S were grown in RPMI supplemented with 10% Fetal Bovine serum (FBS) and antibiotics. Cells were treated with DMSO or different concentrations of compounds 10 and 11 for 6 (MM1S) or 16 (MCF7) hours in presence or absence of cycloheximide. For the experiments in which cycloheximide was used, cells were treated with compounds for 4 (MM1S) or 14 (MCF7) hours prior to the addition of 50 ug/ml of cycloheximide. At 6 or 16 h time point cells were washed in PBS and lysed in modified RIPA buffer (1% Triton X-100, 1% sodium deoxycholate, 0.1% SDS, 20 mM Tris, 150 mM NaCl, 1 mM EDTA) containing phosphatase inhibitor cocktails 1 and 2 (Sigma), and protease inhibitors. Protein concentrations were quantified using the BCA protein assay kit (Pierce) and samples were probed by immunoblotting using mdm2 (santa cruz sc-965), p53 (cell signaling 9282), p21 (cell signaling 2947), GAPDH (cell signaling 2118), USP7 (cell signaling 4833) antibodies (FIGS. 6A-D).

[2] = biological target: T1, USP7 (Homo sapiens, UniProt Q93009); assay: Isothermal titration calorimetry, binding affinity of protein/ligand; set-up: made in house; host or cells: E. coli BL21 (DE3); conditions: ITC at 20° C.
Description: The binding affinity of protein/ligand was measured by adding 0.02 mM protein in cell and titrating with 0.2 mM ligand in the syringe using an Auto-ITC200 microcalorimeter (Malvern) at 20° C. (FIG. 2C). Proteins and ligands were prepared within ITC buffer containing 20 mM HEPES pH 7.5, 150 mM NaCl, and 2% DMSO. The data were fit using Origin 7.0 software.
Target sequence in this assay (Q93009 whole entry): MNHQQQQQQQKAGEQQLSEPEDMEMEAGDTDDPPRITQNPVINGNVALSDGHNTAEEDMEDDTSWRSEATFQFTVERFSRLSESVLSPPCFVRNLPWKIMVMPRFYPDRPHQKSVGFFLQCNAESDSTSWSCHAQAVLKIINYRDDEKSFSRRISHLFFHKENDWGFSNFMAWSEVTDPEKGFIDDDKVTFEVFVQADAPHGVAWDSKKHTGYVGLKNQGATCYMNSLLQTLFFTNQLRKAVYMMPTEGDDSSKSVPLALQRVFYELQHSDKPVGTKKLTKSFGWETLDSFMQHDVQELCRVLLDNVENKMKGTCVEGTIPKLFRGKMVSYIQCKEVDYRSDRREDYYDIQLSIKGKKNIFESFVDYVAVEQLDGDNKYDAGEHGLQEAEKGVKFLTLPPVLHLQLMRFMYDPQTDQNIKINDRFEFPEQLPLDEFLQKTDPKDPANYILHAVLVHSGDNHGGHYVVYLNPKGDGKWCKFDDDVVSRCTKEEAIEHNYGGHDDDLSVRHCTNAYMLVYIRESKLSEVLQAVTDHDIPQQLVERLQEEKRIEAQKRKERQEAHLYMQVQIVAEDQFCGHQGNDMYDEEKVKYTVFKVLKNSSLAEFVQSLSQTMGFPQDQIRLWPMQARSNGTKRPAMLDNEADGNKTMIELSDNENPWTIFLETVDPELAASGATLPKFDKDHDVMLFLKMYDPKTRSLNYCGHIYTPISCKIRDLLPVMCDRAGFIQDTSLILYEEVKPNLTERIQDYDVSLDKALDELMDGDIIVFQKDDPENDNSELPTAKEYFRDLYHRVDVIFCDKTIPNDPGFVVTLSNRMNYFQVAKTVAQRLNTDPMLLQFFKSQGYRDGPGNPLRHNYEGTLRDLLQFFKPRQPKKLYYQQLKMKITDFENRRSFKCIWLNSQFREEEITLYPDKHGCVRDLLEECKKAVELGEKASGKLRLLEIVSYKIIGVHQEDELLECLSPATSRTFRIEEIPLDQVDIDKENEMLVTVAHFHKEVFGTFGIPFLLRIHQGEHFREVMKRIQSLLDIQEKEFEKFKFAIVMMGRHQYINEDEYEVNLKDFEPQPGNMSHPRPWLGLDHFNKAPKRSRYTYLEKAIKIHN

[3] = biological target: T1, USP7; assay: Ub-AMC assay (USP7 assay); type: biochemical; set-up: fused on or other part: His tag from pET28aLIC; removed by thrombin for the catalytic domain, no removal step given for the full length; conditions: USP7 assay
Description: USP7 and mutants were tested for their activity in Ubiquitin-AMC assay in presence or absence of inhibitors. […] For the same assay USP7 full length WT and Q351 mutant were used at 50 nM. […] The reaction was incubated 30 min at room temperature prior to the addition of 2 uM Ubiquitin-AMC (Boston Biochem) substrate. […] The calculated initial rate values were plotted against inhibitor concentrations to determine IC50s. All the experimental data were plotted using Prism GraphPad. FIG. 2A illustrates the structure guided optimization for the inhibition of USP7.
ND refers to not disclosed.
Target sequence in this assay (Q93009 208-560 limits assumed): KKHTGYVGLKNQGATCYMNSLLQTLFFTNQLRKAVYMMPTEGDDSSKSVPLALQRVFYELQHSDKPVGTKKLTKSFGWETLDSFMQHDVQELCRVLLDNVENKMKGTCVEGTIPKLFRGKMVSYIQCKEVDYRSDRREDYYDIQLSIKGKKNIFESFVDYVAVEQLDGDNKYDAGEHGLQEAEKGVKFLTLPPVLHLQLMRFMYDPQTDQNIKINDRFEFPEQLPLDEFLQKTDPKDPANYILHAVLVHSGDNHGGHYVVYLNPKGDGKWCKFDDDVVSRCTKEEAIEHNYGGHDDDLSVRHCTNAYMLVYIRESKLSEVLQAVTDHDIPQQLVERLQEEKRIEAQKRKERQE

## C[C@H](CC(=O)N1CCC(O)(Cn2cnc3cc(NC(=O)CCN4CCN(C)CC4)ccc3c2=O)CC1)c1ccccc1 [Compound 10, (R)—N-(3-((4-Hydroxy-1-(3-phenylbutanoyl)piperidin-4-yl)methyl)-4-oxo-3,4-dihydroquinazolin-7-yl)-3-(4-methylpiperazin-1-yl)propanamide]
[1]
  HDM2, p53 and p21 protein levels: promotes loss HDM2 and accumulation of p53 and p21
[2]
  DH: -15.1 kcal/mol
  n (stoichiometry): 1.06
[2]; 0.02 mM protein, 0.2 mM ligand
  Kd: 0.104 µM
[3]
  IC50: < 0.2 µM

## C[C@@H](CC(=O)N1CCC(O)(Cn2cnc3cc(Cl)ccc3c2=O)CC1)c1ccccc1 [Compound 9, (S)-7-Chloro-3-((4-hydroxy-1-(3-phenylbutanoyl)piperidin-4-yl)methyl)quinazolin-4(3H)-one]
[2]
  DH: -13.5 kcal/mol
  DS (cal/mol•K): −17.3 cal/mol•K
  n (stoichiometry): 0.96
[2]; 0.02 mM protein, 0.2 mM ligand
  Kd: 0.797 µM
[3]
  IC50: < 0.2 µM

## O=C(Cc1ccccc1)N1CCC(O)(Cn2cnc3cc(Cl)ccc3c2=O)CC1 [Compound 7, 7-Chloro-3-((4-hydroxy-1-(2-phenylacetyl)piperidin-4-yl)methyl)quinazolin-4(3H)-one]
[2]; 0.02 mM protein, 0.2 mM ligand
  Kd (μM): No binding
[3]
  IC50: > 10 µM

## O=C(CCc1ccccc1)N1CCC(O)(Cn2cnc3cc(Cl)ccc3c2=O)C1 (stereo not drawn) [Compound 5, 7-chloro-3-((3-hydroxy-1-(3-phenylpropanoyl)pyrrolidin-3-yl)methyl)quinazolin-4(3H)-one]
[3]
  IC50: > 10 µM

## O=C(C1CC1c1ccccc1)N1CCC(O)(Cn2cnc3cc(Cl)ccc3c2=O)CC1 (stereo not drawn) [Compound 30]
[3]
  IC50: 1 to 10 µM

## CN(CC(=O)N1CCC(O)(Cn2cnc3cc(Cl)ccc3c2=O)CC1)c1ccccc1 [Compound 79]
[3]
  IC50: > 10 µM

## O=C(C1Cc2ccccc2C1)N1CCC(O)(Cn2cnc3cc(Cl)ccc3c2=O)CC1 [Compound 81]
[3]
  IC50: > 10 µM

## CC(=O)N1CCC(O)(Cn2cnc3cc(Cl)ccc3c2=O)CC1 [Compound 6, 3-((1-Acetyl-4-hydroxypiperidin-4-yl)methyl)-7-chloroquinazolin-4(3H)-one]
[3]
  IC50: > 10 µM

## Nc1ccc2c(=O)n(CC3(O)CCN(C(=O)CCc4ccccc4)CC3)cnc2c1 [Compound 57]
[3]
  IC50: > 10 µM

## O=c1c2ccc(Cl)cc2ncn1CC1(O)CCN(c2ccc([N+](=O)[O-])cn2)CC1 [Compound 78]
[3]
  IC50: > 10 µM

## CCN(CC(=O)N1CCC(O)(Cn2cnc3cc(Cl)ccc3c2=O)CC1)c1ccccc1 [Compound 80]
[3]
  IC50: > 10 µM

## O=C(CCc1ccccc1)N1CCC(O)(Cn2cnc3cc(Cl)ccc3c2=O)CC1 [Compound A, reference compound]
[2]
  DH: -5.4 kcal/mol
  DS (cal/mol•K): 5.3 cal/mol•K
  n (stoichiometry): 0.98
[2]; 0.02 mM protein, 0.2 mM ligand
  Kd: 7.61 µM

## CC(C)C(Cc1ccccc1)C(=O)N1CCC(O)(Cn2cnc3cc(Cl)ccc3c2=O)CC1 (stereo not drawn) [Compound 91]
[3]
  IC50: 0.2 to 1 µM

## N[C@H](Cc1ccccc1)C(=O)N1CCC(O)(Cn2cnc3cc(Cl)ccc3c2=O)CC1 [Compound 21]
[3]
  IC50: > 10 µM

## CC(CC(=O)N1CCC(O)(Cn2cnc3cc(Cl)ccc3c2=O)CC1)c1ccccc1 (stereo not drawn) [Compound 8, 7-Chloro-3-((4-hydroxy-1-(3-phenylbutanoyl)piperidin-4-yl)methyl)quinazolin-4(3H)-one]
[2]
  DH: -3.9 kcal/mol
  DS (cal/mol•K): 13.1 cal/mol•K
  n (stoichiometry): 2.46
[2]; 0.02 mM protein, 0.2 mM ligand
  Kd: 1.84 µM
[3]
  IC50: < 0.2 µM

## O=C(CCc1ccccc1)N1CCC(Cn2cnc3cc(Cl)ccc3c2=O)CC1 [Compound 2, 7-Chloro-3-((1-(3-phenylpropanoyl)piperidin-4-yl)methyl)quinazolin-4(3H)-one]
[3]
  IC50: < 0.2 µM

## O=C(CCc1ccccc1)N1CCC(O)(Cn2cnc3cc([N+](=O)[O-])ccc3c2=O)CC1 [Compound 56]
[3]
  IC50: > 10 µM

## CN1CCN(CCC(=O)Nc2ccc3c(=O)n(CC4(O)CCN(C(=O)C(Cc5ccccc5)c5ccccc5)CC4)cnc3c2)CC1 (stereo not drawn) [Compound 49]
[3]
  IC50: > 10 µM

## CC(Cc1ccccc1)C(=O)N1CCC(O)(Cn2cnc3cc(Cl)ccc3c2=O)CC1 (stereo not drawn) [Compound 29]
[3]
  IC50: 0.2 to 1 µM

## Nc1ccc2c(c1)NCN(CC1(O)CCN(C(=O)CCc3ccccc3)CC1)C2=O [Compound 58]
[3]
  IC50: > 10 µM

## O=C([C@@H](O)Cc1ccccc1)N1CCC(O)(Cn2cnc3cc(Cl)ccc3c2=O)CC1 [Compound 32]
[3]
  IC50: > 10 µM

## O=C(C1CCc2ccccc2C1)N1CCC(O)(Cn2cnc3cc(Cl)ccc3c2=O)CC1 (stereo not drawn) [Compound 25]
[3]
  IC50: > 10 µM

## C=CCCC(=O)N1CCC(O)(Cn2cnc3cc(Cl)ccc3c2=O)CC1 [Compound 20]
[3]
  IC50: > 10 µM

## O=C(CCc1ccccc1)N1CCC(Cn2cnc3cc(Cl)ccc3c2=O)CC1 [Compound 60]
[3]
  IC50: > 10 µM

## CN(Cc1ccccc1)C(=O)N1CCC(O)(Cn2cnc3cc(Cl)ccc3c2=O)CC1 [Compound 38]
[3]
  IC50: 0.2 to 1 µM

## Nc1ccc2ncn(CC3(O)CCN(C(=O)CCc4ccccc4)CC3)c(=O)c2c1 [Compound 69]
[3]
  IC50: > 10 µM

## CC(C(=O)N1CCC(O)(Cn2cnc3cc(Cl)ccc3c2=O)CC1)C(C)c1ccccc1 (stereo not drawn) [Compound 93]
[3]
  IC50: 1 to 10 µM

## C[C@H](CC(=O)N1CCC(O)(Cn2cnc3cc(NC(=O)CCN(C)C)ccc3c2=O)CC1)c1ccccc1 [Compound 15, (R)-3-(Dimethylamino)-N-(3-((4-hydroxy-1-(3-phenylbutanoyl)piperidin-4-yl)methyl)-4-oxo-3,4-dihydroquinazolin-7-yl)propanamide]
[3]
  IC50: < 0.2 µM

## CC(C)C(CC(=O)N1CCC(O)(Cn2cnc3cc(NC(=O)CCN4CCN(C)CC4)ccc3c2=O)CC1)c1ccccc1 (stereo not drawn) [Compound 13]
[3]
  IC50: 0.2 to 1 µM

## CC(C)(CC(=O)N1CCC(O)(Cn2cnc3cc(Cl)ccc3c2=O)CC1)c1ccccc1 [Compound 28]
[3]
  IC50: > 10 µM

## O=C(CCc1ccccn1)N1CCC(O)(Cn2cnc3cc(Cl)ccc3c2=O)CC1 [Compound 34]
[3]
  IC50: > 10 µM

## O=C(c1ccc2c(Cl)c3c(nc2c1)CCCC3)N1CCC(O)(Cn2cnc3cc(Cl)ccc3c2=O)CC1 [Compound 71]
[3]
  IC50: > 10 µM
